Assay results from patent publication US6225321A (priority 1997, dated 2001).

Test: Half-life / conversion of dinalbuphine sebacoyl ester in rat blood
Format: in vitro ADME
Details: for Elimination half-life: n = 3, mean ± S.E.
Experimental: (a) Dinalbuphine sebacoyl ester(SDN) was dissolved in acetonitrile, the concentration was 7.75 mg/ml.
(b) […] of whole blood was collected from rats given dinalbuphine sebacoyl ester, and anticoagulant was added.

## O=C(CCCCCCCCC(=O)Oc1ccc2c3c1O[C@H]1[C@@H](O)CC[C@@]4(O)[C@@H](C2)N(CC2CCC2)CC[C@]314)Oc1ccc2c3c1O[C@H]1[C@@H](O)CC[C@@]4(O)[C@@H](C2)N(CC2CCC2)CC[C@]314 [sebacoyl dinalbuphine ester]
Rat plasma
  Elimination half-life: 2.8 min
Rat red blood cell
  Elimination half-life: 2.3 ± 0.6 min
Rat whole blood
  Elimination half-life: 2.2 ± 0.5 min
rats
  converted time of 90% into Nalbuphine: 10 min
rats, HPLC
  half life: 2.8 min
